Values of other authors, collected in patent publication US7479478B2, “Human parathyroid hormone modifications, preparation and use” (The General Hospital Corporation, priority 1998, dated 2009).
No end group written: not given here.

System: membrane-bound PKCs
Conditions: osteoblast-like ROS 17/2 cells; Neugebauer et al. 1995; cited from earlier work

Which “stimulation of activity of membrane-bound PKCs” value does the source give for “SVSEIQLMHNLGKHLNSMERVEWLRKKL-NH2 [hPTH-(1-28)]” here?
Its value is “incapable of stimulating”.
